Reference: patent US20240400547A1, “2,6-PIPERIDINEDIONE COMPOUND AND APPLICATION THEREOF” (MEDSHINE DISCOVERY INC., priority 2021, published 2024)
Counter-ions that a name gives are not always drawn.

Assays:
IRAK4 = molecular target: T1, IRAK4 (Homo sapiens, UniProt Q9NWZ3); assay: Target protein degradation in K562 IRAK4-HiBiT cells (Nano-Glo HiBiT); format: cell-based; conditions: 16 to 18 hours; for Dmax: read-out: Maximum degradation rate
T1 construct: expressed in transfected cells; host or cells: K562 IRAK4-HiBiT cells
T1 sequence (Q9NWZ3 1-460): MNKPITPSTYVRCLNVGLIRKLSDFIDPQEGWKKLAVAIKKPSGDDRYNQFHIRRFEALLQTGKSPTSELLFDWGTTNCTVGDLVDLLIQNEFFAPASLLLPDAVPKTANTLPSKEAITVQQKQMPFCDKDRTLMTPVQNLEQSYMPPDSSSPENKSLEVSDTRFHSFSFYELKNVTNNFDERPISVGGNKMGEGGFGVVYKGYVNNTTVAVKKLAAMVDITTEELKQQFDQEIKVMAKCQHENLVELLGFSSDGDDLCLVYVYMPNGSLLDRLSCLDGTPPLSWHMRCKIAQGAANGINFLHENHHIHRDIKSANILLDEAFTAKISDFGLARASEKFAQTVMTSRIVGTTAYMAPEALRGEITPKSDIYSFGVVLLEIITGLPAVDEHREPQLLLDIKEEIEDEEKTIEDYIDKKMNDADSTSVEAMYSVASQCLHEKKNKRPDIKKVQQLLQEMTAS
Procedure: Experimental objective: The experiment aims to evaluate the degradation effect of the test compounds on the target protein IRAK4 in K562 IRAK4-HiBiT cells.
• Cells: K562 IRAK4-HiBiT cells • Culture medium: RPMI 1640+10% fetal bovine serum+2 mM glutamine+1 mM sodium pyruvate+penicillin/streptomycin. • Positive control: 1000 nM; negative control: 0.1% DMSO.
• (1). The powder of the compound to be tested was dissolved in DMSO to a storage concentration of 10 mM. A total of 9 μL of the 10 mM of the compound to be tested was manually pipetted into the 1st and 13th columns of the LDV plate using a pipettor; • (2). A volume of 6 μL of DMSO was added to columns 2-12 and 14-24 using a Multidrop Combi; • (3). A 3-fold dilution of the test compounds (3 μL+6 μL) was performed using Bravo, for columns 1-11 and 13-23; • (4). According to the plate layout, 25 nL of compound solution (columns 1-24 of the LDV plate) was transferred to the experimental plate using Echo; • (5) 25 nL of the 1 mM positive control solution was transferred to the assay plate as a 100% degradation control (i.e. LC, HPE), and 25 nL of DMSO was transferred to the assay plate as a 0% control (i.e. HC, ZPE).
• (1) The culture medium was discarded, and the cells were washed once with DPBS, digested with trypsin, counted, and prepared into a cell suspension of […]. • (2) Using the MultiDrop Combi at a medium speed, 25 μL/well of the cell suspension was added to the experimental plate containing the test compounds; • (3) The experimental plate containing cells was returned to the incubator and cultured for 16 to 18 hours at 37° C. and 5% CO2.
• (1). Using the MultiDrop Combi at a high speed, 25 μL/well of the assay reagent (NanoGlo lytic solution+substrate+LgBit protein) was added to the assay plate, followed by shaking for 10 minutes; • (2) The plate was centrifuged at 2000 rpm for 1 minute to remove any bubbles; • (3) Readings were obtained by using an Envision, US Luminescence reader.
To calculate the degradation rate (DR) of the test compounds, the following formula is used: IR (%)=(RLU vehicle control−RLU compound)/(RLU vehicle control−RLU positive control)×100%. The solvent control refers to the blank control. The degradation rates of compounds at different concentrations were calculated in Excel, and then XLFit software was used to plot inhibition curves and calculate relevant parameters, including minimum degradation rate, maximum degradation rate, and DC50.

IKZF1 = molecular target: T2, IKZF1 (Homo sapiens, UniProt Q13422+Q96SW2); assay: In Cell Western of IKZF1 protein expression level in MM.1S cells; format: cell-based; conditions: IKZF1, MM.1S cells, 24 hours; for Dmax: MM1.S, read-out: Maximum degradation rate Dmax
T2 construct: host or cells: MM.1S cells
Procedure: Experimental objective: The experiment aims to assess the degradation effect of the test compounds on IKZF1 and 1KZF3 proteins in MM.1S cells by evaluating the impact of the test compounds on the expression levels of IKZF1 and IZKZF3 proteins in MM.1S cells.
• Cell lines: MMN.1 S cell (sourced from ATCC; Cat. No CRL-2974) • Negative control: 0.100 DMSO.
• 1) Log phase MM.1 S cells were plated in a 96-well plate at 1.2×10^5 cells per well and cultured overnight; • 2) The next day, compounds were added with a starting concentration of 300 nM, diluted threefold across three replicate wells for 10 concentration gradients (including DMSO), and the cells were incubated for 24 hours in an incubator; • 3) The cells were centrifuged, and the supernatant was carefully removed. 150 μL of 4% paraformaldehyde fixative was added along the wall of the wells, avoiding contact with the bottom cells, and the cells were incubated at room temperature for 20 minutes; • 4) Lysis buffer was prepared by mixing 0.5 mL of 10% Triton X-100 with 49.5 mL of PBS until homogenous; • 5) 200 μL of lysis buffer was added along the well walls, again avoiding the bottom cells, and incubated on a shaker at room temperature for 5 minutes; • 6) The wells were washed four times; • 7) 150 μL of Licor […] Blocking Buffer was added along the well walls, avoiding the bottom cells, and the cells were incubated on a shaker at room temperature for 1.5 hours; • 8) Ikaros (D6N9Y) Rabbit mAb, Aiolos (D1C1E) Rabbit mAb and GAPDH mouse mAb (proteintech, 60004-1-Ig) were diluted at a 1:100 ratio using antibody dilution buffer; • 9) 50 μL of mixed antibody was added to each well with three replicate wells, and the cells were incubated overnight on a shaker at 4° C.; • 10) PBST (PBS with 0.1% Tween 20) was prepared; • 11) The primary antibodies were removed, and 200 μL of PBST was added along the well walls, avoiding the bottom cells, and the cells were incubated on a shaker at room temperature for 5 minutes; • 12) The wells were washed four times; • 13) Secondary antibody dilution buffer was prepared by adding Tween 20 to Licor […] Blocking Buffer to a final concentration of 0.2%; • 14) Fluorescent secondary antibodies were diluted in the dark at a 1:800 ratio. To 400 μL of secondary antibody dilution solution, 0.5 μL of each IRDye 800CW and IRDye 680CW (corresponding to the primary antibodies) was added. • 15) 50 μL of the diluted fluorescent secondary antibodies was added to each well and the cells were incubated on a shaker at room temperature in the dark for 60 minutes; • 16) The secondary antibodies were removed, and 200 μL of PBST was added along the well walls, avoiding the bottom cells, and the cells were incubated on a shaker at room temperature in the dark for 5 minutes; • 17) The wells were washed four times; immediately after washing, the Odyssey Gel Imaging System was used for detection at dual wavelengths of 700 nm and 800 nm.
Using GraphPad Prism 6 software, inhibition rate data was entered to fit the curve and calculate the DC50 value.

T2 sequence (Q13422 whole entry): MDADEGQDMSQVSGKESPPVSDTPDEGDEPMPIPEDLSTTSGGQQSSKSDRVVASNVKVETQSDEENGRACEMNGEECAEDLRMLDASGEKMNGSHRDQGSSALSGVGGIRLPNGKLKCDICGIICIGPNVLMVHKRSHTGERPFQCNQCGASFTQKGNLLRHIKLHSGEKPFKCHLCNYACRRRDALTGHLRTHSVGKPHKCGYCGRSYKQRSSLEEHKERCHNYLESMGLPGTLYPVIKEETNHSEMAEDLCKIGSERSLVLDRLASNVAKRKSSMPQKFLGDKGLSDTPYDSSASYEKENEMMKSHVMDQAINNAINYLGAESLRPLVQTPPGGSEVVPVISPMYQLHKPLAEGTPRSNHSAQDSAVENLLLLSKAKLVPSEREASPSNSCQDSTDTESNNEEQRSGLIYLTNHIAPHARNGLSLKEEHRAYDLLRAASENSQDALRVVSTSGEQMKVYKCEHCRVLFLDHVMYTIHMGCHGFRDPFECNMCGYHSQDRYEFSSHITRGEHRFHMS
T2 sequence (Q96SW2 whole entry): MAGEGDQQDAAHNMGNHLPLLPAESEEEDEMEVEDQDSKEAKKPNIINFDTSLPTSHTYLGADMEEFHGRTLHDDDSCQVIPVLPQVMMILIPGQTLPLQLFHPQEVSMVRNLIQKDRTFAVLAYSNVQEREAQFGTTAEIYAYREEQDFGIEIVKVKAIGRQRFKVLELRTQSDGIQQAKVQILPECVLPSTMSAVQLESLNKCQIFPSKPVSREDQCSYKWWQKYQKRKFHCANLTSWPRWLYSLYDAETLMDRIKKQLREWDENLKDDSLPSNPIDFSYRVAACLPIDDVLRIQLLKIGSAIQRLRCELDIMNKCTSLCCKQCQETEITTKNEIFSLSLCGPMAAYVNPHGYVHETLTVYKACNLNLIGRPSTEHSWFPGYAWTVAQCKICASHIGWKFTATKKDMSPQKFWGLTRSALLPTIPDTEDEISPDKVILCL
T2 sequence (Q16531 whole entry partner): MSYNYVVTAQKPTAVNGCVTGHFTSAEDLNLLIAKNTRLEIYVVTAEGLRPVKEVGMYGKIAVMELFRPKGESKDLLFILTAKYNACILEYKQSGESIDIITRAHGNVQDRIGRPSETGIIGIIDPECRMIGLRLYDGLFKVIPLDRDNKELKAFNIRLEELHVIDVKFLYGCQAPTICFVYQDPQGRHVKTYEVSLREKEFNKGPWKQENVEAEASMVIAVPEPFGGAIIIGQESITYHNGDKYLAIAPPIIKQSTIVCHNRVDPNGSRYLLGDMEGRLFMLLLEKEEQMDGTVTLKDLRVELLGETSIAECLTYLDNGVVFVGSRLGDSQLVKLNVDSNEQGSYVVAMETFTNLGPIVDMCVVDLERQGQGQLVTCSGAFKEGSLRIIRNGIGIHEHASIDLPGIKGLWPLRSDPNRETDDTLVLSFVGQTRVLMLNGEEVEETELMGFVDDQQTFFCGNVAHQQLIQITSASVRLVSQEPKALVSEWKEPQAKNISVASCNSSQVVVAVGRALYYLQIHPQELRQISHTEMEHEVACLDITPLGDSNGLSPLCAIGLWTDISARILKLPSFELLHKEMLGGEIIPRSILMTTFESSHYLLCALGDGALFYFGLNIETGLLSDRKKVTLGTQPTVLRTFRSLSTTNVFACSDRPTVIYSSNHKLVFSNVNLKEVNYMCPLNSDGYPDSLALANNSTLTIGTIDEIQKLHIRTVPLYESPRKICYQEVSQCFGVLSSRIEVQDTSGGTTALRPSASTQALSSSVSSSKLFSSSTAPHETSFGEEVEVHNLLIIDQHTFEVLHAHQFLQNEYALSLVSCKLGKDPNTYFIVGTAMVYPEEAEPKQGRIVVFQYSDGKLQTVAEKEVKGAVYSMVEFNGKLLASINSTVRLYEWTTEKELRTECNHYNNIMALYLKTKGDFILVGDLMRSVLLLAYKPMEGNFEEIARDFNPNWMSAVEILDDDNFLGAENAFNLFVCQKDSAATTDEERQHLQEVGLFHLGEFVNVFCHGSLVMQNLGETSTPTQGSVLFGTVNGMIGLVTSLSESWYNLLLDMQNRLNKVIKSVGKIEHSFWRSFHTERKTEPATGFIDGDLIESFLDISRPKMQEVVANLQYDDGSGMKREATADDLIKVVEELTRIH

| DC50 (IRAK4) [nM] | Dmax (IRAK4) [%] | DC50 (IKZF1) [nM] | Dmax (IKZF1) [%] | SMILES |
| --- | --- | --- | --- | --- |
| 4 | 73.9 | 15.7 | 62.9 | CC(C)(O)c1cc2nc(C3CCC(CN4CCN(CC(=O)Nc5cccc6c5ccc5onc(C7CCC(=O)NC7=O)c56)CC4)CC3)sc2cc1NC(=O)c1cccc(C(F)(F)F)n1 (stereo not drawn) [Formate of WX017] |
| 29.9 | 75.1 | 3.77 | 85.2 | CC(C)(O)c1cc2nc([C@H]3CC[C@H](CN4CCN(CC(=O)Nc5ccc6c(ccc7onc(C8CCC(=O)NC8=O)c76)c5)CC4)CC3)sc2cc1NC(=O)c1cccc(C(F)(F)F)n1 (stereo partly drawn) [Formate of WX020] |
| 0.78 | 80.3 | 5.64 | 84.4 | CC(C)(O)c1cc2nc([C@H]3CC[C@H](CN4CCN(CC(=O)Nc5ccc6c(C7CCC(=O)NC7=O)noc6c5)CC4)CC3)sc2cc1NC(=O)c1cccc(C(F)(F)F)n1 (stereo partly drawn) [Formate of WX026] |
| 13.5 | 100 |  |  | O=C1CCC(c2coc3cc(NC(=O)CN4CCN(C[C@H]5CC[C@H](N6CC(NC(=O)c7coc(-c8ccnc(NCC9CC9)c8)n7)C(C(F)F)N6)CC5)CC4)ccc23)C(=O)N1 (stereo partly drawn) [Hydrochloride of WX002] |
| 7.91 | 119 | 14.5 | 88.8 | O=C1CCC(c2noc3ccc4c(NC(=O)C(F)(F)C5CCN(CC6CCC(n7cc(NC(=O)c8coc(-c9ccnc(NCC%10CC%10)c9)n8)c(C(F)F)n7)CC6)CC5)cccc4c23)C(=O)N1 (stereo not drawn) [Hydrochloride of WX018] |
| 2.53 | 105 | 14.4 | 72.2 | O=C1CCC(c2noc3cc(NC(=O)CN4CCN(C[C@H]5CC[C@H](n6cc(NC(=O)c7coc(-c8ccnc(NCC9CC9)c8)n7)c(C(F)F)n6)CC5)CC4)ccc23)C(=O)N1 (stereo partly drawn) [Hydrochloride of WX025] |
| 2.11 |  | 26.7 | 49.7 | O=C1CCC(c2noc3c(NC(=O)CN4CCN(C[C@H]5CC[C@H](n6cc(NC(=O)c7coc(-c8ccnc(NCC9CC9)c8)n7)c(C(F)F)n6)CC5)CC4)cccc23)C(=O)N1 (stereo partly drawn) [Hydrochloride of WX028] |
| 9.6 | 105 |  |  | O=C1CCC(c2coc3ccc4c(NC(=O)CN5CCN(C[C@H]6CC[C@H](n7cc(NC(=O)c8coc(-c9ccnc(NCC%10CC%10)c9)n8)c(C(F)F)n7)CC6)CC5)cccc4c23)C(=O)N1 (stereo partly drawn) [Trifluoroacetate of WX011] |
